Experimental data: patent publication US12070452B2, “Compounds targeting HSP110 protein for cancer treatment” (INSERM (Institut National de la Santé et de la Recherche …, priority 2018, dated 2024)
“Also recorded” adds a separate entry of the source.

What was measured:
[1] = target: T1, human protein HSP110 (Homo sapiens, UniProt Q92598); assay: HSP110 anti-aggregation function (luciferase substrate test); format: biochemical; conditions: human HSP110 1.5 μM with firefly luciferase, 30 min at 42° C.; read-out: IC50 of HSP110 anti-aggregating activity
T1 construct: DNA coding the NBD-HSP110 (from human-HSP110)
T1 sequence (Q92598 whole entry, looked up): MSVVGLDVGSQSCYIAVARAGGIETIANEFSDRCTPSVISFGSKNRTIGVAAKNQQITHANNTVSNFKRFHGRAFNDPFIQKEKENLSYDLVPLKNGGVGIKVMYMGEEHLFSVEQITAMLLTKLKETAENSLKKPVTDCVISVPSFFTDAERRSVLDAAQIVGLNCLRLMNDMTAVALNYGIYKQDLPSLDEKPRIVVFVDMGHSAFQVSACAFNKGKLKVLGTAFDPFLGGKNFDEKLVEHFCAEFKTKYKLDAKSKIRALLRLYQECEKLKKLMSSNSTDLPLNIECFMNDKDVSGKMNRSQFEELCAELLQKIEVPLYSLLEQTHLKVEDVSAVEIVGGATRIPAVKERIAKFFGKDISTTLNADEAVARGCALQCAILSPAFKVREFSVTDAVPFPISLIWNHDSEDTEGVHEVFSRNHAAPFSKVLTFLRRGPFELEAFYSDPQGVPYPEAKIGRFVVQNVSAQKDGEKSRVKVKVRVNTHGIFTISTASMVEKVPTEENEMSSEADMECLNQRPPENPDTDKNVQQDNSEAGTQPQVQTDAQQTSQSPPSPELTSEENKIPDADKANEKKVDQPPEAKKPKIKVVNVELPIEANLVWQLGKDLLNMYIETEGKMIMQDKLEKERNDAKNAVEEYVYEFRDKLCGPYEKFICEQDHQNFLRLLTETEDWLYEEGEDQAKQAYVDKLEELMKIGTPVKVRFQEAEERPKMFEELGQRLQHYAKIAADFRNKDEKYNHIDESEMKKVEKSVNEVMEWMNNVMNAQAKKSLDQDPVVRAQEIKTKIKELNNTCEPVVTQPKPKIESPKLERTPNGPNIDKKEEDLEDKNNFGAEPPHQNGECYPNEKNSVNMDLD
Method: Anti-aggregation function of HSP110 was evaluated as described by O H et al (The Journal of biological chemistry 274, 15712-15718 (1999)). The human protein HSP110 (obtained as described above) at a concentration of 1.5 μM was incubated with firefly luciferase (from Sigma—from Photinus pyralis) in reaction buffer and heated in water bath for 30 min at 42° C.
Compounds of the present invention were added in reaction buffer to achieve the indicated concentrations and the final DMSO concentration was held constant at 1%. The heated reaction was diluted 10 times into buffer containing 60% of rabbit reticulocytelysate and incubated for 2 hours. The luciferase activity was measured by diluting 5 times the solution in HEPES and adding 5 μL of the solution in luciferase substrate (50 μL of Luciferase Assay System—Promega E1501 diluted in HEPES). The bioluminescence was reading with Envision Perkin Elmer.
The percentage of activity (x) was calculated by using the following equation: x=[(A−B)/(C−B)]×100, where (A) is the luciferase luminescence in presence of compounds of the invention, (B) in absence of HSP110 and (C) in presence of DMSO (Control). The percentage of total folding HSP110-promoted (mean=36%) was calculated considering as 100% the luminescence of luciferase incubated with HSP110 without heat shock. The IC50 were calculated from the dose-response curves, which were fitted by GraphPrism (Equation: Y=100/(1+10^((Log IC50−X)*HillSlope)).

[2] = tested on: CT26 cells; assay: Flow cytometric analysis of cell death (Annexin V / 7-AAD) in CT26 cells; format: cell-based, mouse; conditions: 10 μM, 96 h
Method: FIG. 5A: Flow cytometric analysis of cell death in CT26 cells treated with the compound 33 (at the bottom left), compound 52 (at the bottom middle), comparative compound 61 (at the bottom right) at 10 μM during 96 h compared with Control (DMSO) (at the top left), and Cisplatin (at the top middle and top right). Live cells were double negative for 7-AAD (Y axis) and Annexin V (X axis), early apoptotic cells were positive for Annexin V, late apoptotic cells were positive for Annexin V and 7-AAD ([…]) and dead cells were positive for 7-AAD only.
FIG. 5B: Quantification of cell viability (in percentage) from flow cytometry data are represented (Control, cells, compounds 33, 52 and 61 from the left to the right bars). (Abscissa Negativity of 7-AAD; Ordinate Negativity of Annexin V).
We then analyzed cell death in CT26 cells treated with 10 μM during 96 h of compounds 33, 52 and 61 by flow cytometry. Cells were also treated with a well know anti-cancer compound, called cisplatin. Cells were marked for 7-aminoactinomycin D, which exclusively bind on death cells and for Annexin V, a well-known indicators of early stage apoptosis, thanks to its ability to bind to phosphatidylserine.

[3] = tested on: DLBCL cell lines; assay: Viability of B-cell lymphoma cell lines (Annexin V/7AAD staining); format: cell-based, human; conditions: 96 h, 5-40 μM
Excerpt: FIG. 10E: Viability of various B-cell lymphoma cell lines treated with increasing concentrations of compound 33 (inhibitor 33).
Groups of bars, from the left to the right of FIG. 10E: (i) OCI-Ly10 human diffuse large B-cell lymphoma cell line, (ii) HBL1 human diffuse large B-cell lymphoma cell line, (iii) TMD8 human B cell lymphoma cell line, (iv) OCI-Ly3 human large B-cell lymphoma cell line and (v) U2932 human diffuse large B-cell lymphoma cell line.
In each group of bars, from the left to the right: (i) Control, without treatment, (ii) Compound 33 at 5 μM, (iii) Compound 33 at 10 μM, (iv) Compound 33 at 20 μM, (v) Compound 33 at 30 μM, (vi) Compound 33 at 40 μM.
FIG. 10F: Viability of various B-cell lymphoma cell lines treated with increasing concentrations of compound 52 (inhibitor 52).
Groups of bars, from the left to the right of FIG. 10F: (i) TMD8 human B cell lymphoma cell line and (ii) OCI-Ly3 human large B-cell lymphoma cell line.
In each group of bars, from the left to the right: (i) Control, without treatment (0 μM), (ii) Compound 52 at 5 μM, (iii) Compound 52 at 10 μM, (iv) Compound 52 at 20 μM, (v) Compound 52 at 30 μM, (vi) Compound 52 at 40 μM.

[4] = target: T2, HSP110:STAT3 complex (Homo sapiens, UniProt Q92598); assay: Immunoprecipitation of HSP110:STAT3 complex in SW480 cells; format: cell-based; conditions: SW480 shCtrl cells, 10 μM, 48 h
T2 construct: disrupting HSP110:STAT3 complex within the cell using human colorectal SW480 cancer cells; endogenous in cells; host or cells: SW480 cells carrying control shRNA (shCtrl); sh110 cells as HSP110-depleted control
T2 sequence (Q92598 2-858 limits assumed, one chain of several): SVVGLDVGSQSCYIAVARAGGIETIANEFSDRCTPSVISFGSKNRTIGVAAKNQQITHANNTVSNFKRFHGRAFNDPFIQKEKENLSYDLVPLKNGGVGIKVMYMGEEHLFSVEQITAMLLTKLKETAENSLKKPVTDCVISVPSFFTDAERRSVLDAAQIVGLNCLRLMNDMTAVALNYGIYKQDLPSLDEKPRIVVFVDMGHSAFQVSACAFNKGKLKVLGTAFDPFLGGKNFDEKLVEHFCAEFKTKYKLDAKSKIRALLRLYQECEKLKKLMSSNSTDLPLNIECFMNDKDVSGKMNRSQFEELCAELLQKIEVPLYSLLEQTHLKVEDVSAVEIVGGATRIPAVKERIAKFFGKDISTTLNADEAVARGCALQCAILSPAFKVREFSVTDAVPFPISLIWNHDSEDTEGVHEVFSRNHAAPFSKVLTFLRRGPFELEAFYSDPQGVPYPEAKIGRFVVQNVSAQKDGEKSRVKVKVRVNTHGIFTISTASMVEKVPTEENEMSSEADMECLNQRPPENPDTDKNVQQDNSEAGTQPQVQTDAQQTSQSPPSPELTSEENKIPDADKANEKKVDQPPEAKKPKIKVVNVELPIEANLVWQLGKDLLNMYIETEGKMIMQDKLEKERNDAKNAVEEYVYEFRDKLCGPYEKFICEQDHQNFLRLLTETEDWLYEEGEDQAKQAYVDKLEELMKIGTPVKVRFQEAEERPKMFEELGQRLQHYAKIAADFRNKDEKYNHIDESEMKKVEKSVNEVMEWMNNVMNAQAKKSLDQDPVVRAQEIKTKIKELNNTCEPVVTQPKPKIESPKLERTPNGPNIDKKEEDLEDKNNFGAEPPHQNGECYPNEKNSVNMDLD
Method: FIG. 2A: Immunoprecipitation (IP) analysis of HSP110 protein (first line), STAT3 protein (second line) compared with total Immunoglobuline (Ig) and actin in SW480 cells treated with (from left to the right column) non-relevant antibody as control (called NT a Normal rabbit IgG (sc-2027) from Santa Cruz Biotechnologies), compound 52 (related to formula (III)), compound 33 (related to formula (II)), compound 51 (related to formula (IV)) and comparative compound 61 at a concentration of 10 μM during 48 h on shCtrl cells transfected with shRNA for shRNA control (referenced ShCtrl IP:STAT3 for the five first columns) or HSP110-silencing (sh110) (referenced sh110-IP:STAT3 for the two last columns) (from the left to the right columns). Immunoprecipitation analysis of HSP110 (first line), STAT3 (second line) compared with total Ig and actin (second blot in the right) is observed with shCtrl cells transfected with shRNA for shRNA control (shCtrl) or HSP110-silencing (sh110) (left to right columns).
FIG. 2B: Quantification of HSP110:STAT3 disruption in percentage considering the total amount of HSP110 protein normalized by the signal intensity of the Ig band of FIG. 1 panel A. (Ordinate: Percentage of STAT3:HSP110 protein interaction (scale 50)). The histogram measured quantification in percentage for ShCtrl IP: STAT3 treated with Ctrl, compounds 52, 33, 51 and comparative compound 61, and for shCtrl cells transfected with shRNA for shRNA control referenced ShCtrl IP: STAT3) or HSP110-silencing (sh110) (referenced sh110-IP: STAT3) (from the left to the right column)
Immunoprecipitation test were realized on human colorectal cancer cells (SW480 and HCT116 cell lines), using a control depleted in HSP110 called Sh110 and a not depleted cells in HSP110. STAT3 phosphorylation is then […] by compounds 33 and 52. Depletion of HSP110 in the negative control blocked the phosphorylation of STAT3 without affecting STAT3 overall levels (FIGS. 2 and 3).

| SMILES | IC50 [1] | cell death / apoptosis (Annexin V and 7-AAD marking) [2] | viability of DLBCL cell lines ([3]; TMD8 and OCI-Ly3) | percentage of interaction of STAT3:HSP110 [4] | viability of DLBCL cell lines ([3]; OCI-Ly10, HBL1, TMD8, OCI-Ly3 and U2932) |
| --- | --- | --- | --- | --- | --- |
| COc1cc(-c2cnc(-c3cnc(-c4cc(OC)c(OC)c(OC)c4)c(C)c3)c(/C=C/c3ccccc3)c2)cc(OC)c1OC [compound 52, (E)-5′-Methyl-3-styryl-5,6′-bis(3,4,5-trimethoxyphenyl)-2,3′-bipyridine] | 86 ± 1.5 µM | don't seem to be marked; also recorded: does not allow detecting significally apoptosis | reduces the viability | 5% | – |
| COc1ccc(-c2ncc(-c3ncc(-c4cc(OC)c(OC)c(OC)c4)cc3/C=C/c3ccccc3)cc2C)cc1OC [compound 33, (E)-6′-(3,4-Dimethoxyphenyl)-5′-methyl-3-styryl-5-(3,4,5-trimethoxyphenyl)-2,3′-bipyridine] | 58.3 ± 1.7 µM | don't seem to be marked; also recorded: does not allow detecting significally apoptosis | – | 20% | reduces the viability |
